The numbers were not newly measured in patent US20140023695A1, “PATCH PREPARATION” (priority 2011, published 2014), which cites them from elsewhere.

Each structure is given as a SMILES string.

The target of one data set is dopamine D2 (Homo sapiens, UniProt P14416). The following applies: as compared to existing antipsychotic, haloperidol.
In the next data set the test system is serotonin 5-HT2 receptor. The following applies: as compared to existing antipsychotic, haloperidol.

dopamine D2, sequence (P14416 whole entry): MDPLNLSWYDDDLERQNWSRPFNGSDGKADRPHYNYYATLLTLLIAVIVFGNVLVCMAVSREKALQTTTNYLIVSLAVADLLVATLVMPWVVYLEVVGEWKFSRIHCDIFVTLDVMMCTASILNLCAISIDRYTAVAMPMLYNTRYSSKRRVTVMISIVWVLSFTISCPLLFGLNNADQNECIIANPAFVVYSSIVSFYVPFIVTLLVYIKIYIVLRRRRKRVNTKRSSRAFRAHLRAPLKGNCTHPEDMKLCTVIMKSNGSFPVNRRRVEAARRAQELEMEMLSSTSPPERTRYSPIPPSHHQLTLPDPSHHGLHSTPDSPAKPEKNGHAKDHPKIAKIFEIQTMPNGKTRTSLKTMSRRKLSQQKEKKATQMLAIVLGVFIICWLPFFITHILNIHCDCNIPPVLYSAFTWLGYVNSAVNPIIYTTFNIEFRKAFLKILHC

Regarding `CCN1CCN(c2cc(-c3ccc(F)cc3)c3c(n2)CCCCCC3)CC1` [compound A, 2-(4-Ethyl-1-piperazinyl)-4-(4-fluorophenyl)-5,6,7,8,9,10-hexahydrocycloocta[b]pyridine], the “affinity for dopamine D2” value at dopamine D2 was “higher affinity”. Besides, the “affinity for serotonin 5-HT2 receptor” value in the data set with serotonin 5-HT2 receptor is “higher affinity”.
